Reference: PubChem BioAssay AID1626 (SRMLSC, 2009)

Test system: M. tuberculosis H37Rv growth inhibition
Experiment: M. tuberculosis H37Rv growth inhibitors, H37Rv strain (AID 1626)
Details: for IC90: measured here: IC90 against H37Rv; for CC50: measured here: Vero cell cytotoxicity

## Nc1ccc(C(=O)c2cccs2)cc1
  IC50: 22.1 µM
  IC90: > 100 µM

## Cc1ccc2nc(Cl)c(/C=C/C(=O)c3ccco3)cc2c1
  IC50: 2.26 µM
  IC90: 4.01 µM
  CC50: 25 µM

## O=c1oc2ccc3ccccc3c2cc1-c1nc2ccccc2o1
  IC50: 2.79 µM
  IC90: 7.33 µM

## Cn1cnc(Sc2ncnc3nc[nH]c23)c1[N+](=O)[O-]
  IC50: 8.98 µM
  IC90: 16.1 µM

## Clc1ccc(-c2ccc(C=Nc3ccc(N4CCOCC4)cc3)o2)c(Cl)c1
  IC90: > 100 µM

## Cc1ccccc1-c1nc2cc(N)ccc2o1
  IC50: 15.3 µM
  IC90: > 100 µM

## CCOC(=O)c1sc2nc(C)[nH]c(=S)c2c1C
  IC50: 39.1 µM
  IC90: > 100 µM

## COc1ccc(OCCCC(=O)Nc2cccc(SC)c2)cc1
  IC90: > 100 µM

## COc1cccc(-c2cc(C(=O)Nc3nc4ccccc4s3)c3ccccc3n2)c1
  IC50: 8.12 µM
  IC90: > 100 µM
  CC50: > 40 µM

## O=C(Nc1nccs1)c1cn(-c2ccccc2)nc1-c1ccccc1
  IC90: > 100 µM
  CC50: > 40 µM

## O=C(CCCSc1nnc(SCCCC(=O)c2ccc(F)cc2)s1)c1ccc(F)cc1
  IC50: 0.516 µM
  IC90: 0.654 µM
  CC50: 26.4 µM

## COc1ccccc1-c1nnc(SCC(=O)Nc2cc(C)on2)o1
  IC50: 10.4 µM
  IC90: 16.5 µM

## CC1(C)CC(=O)C(C=Nc2ccc3c(c2)OCO3)=C(O)C1
  IC90: > 100 µM

## Cc1ccc2c(c1)c1ncnc(N3CCc4ccccc4C3)c1n2C
  IC50: 6.39 µM
  IC90: 11.2 µM

## O=C(COc1ccc(Nc2ccccc2)cc1)OCC(=O)N1CCCCC1
  IC50: 19.5 µM
  IC90: > 100 µM

## CCOc1ccc(-c2nnc(NC(=O)c3ccc(OCC(C)C)c(OC)c3)o2)cc1
  IC50: 10.1 µM
  IC90: > 100 µM
  CC50: 25.3 µM

## Cc1nc(N/C(N)=N/S(=O)(=O)c2ccc([N+](=O)[O-])cc2)nc2ccccc12
  IC50: 9.12 µM
  IC90: > 100 µM
  CC50: > 40 µM

## COc1ccc2nc(NC(=O)c3cnccn3)sc2c1
  CC50: > 40 µM

## COc1ccc(CNC[C@@H](CCCCN(C)Cc2ccc(OC)cc2)N2C[C@H](c3ccccc3)N(CCc3ccc(Cl)c(Cl)c3)C(=O)C2=O)cc1
  IC50: 12.2 µM
  IC90: 19.2 µM
  CC50: 11.5 µM

## COc1ccc(NCC(=O)Nc2ccc(Cl)cc2C)c(OC)c1
  IC50: 27.4 µM
  IC90: > 100 µM

## N#C/C(=C(/O)CSc1nnc(Cc2cccs2)n1C1CCCCC1)c1nc2ccccc2[nH]1
  IC90: > 100 µM

## Nc1nc2ccccc2n1C(=O)c1ccccc1
  IC50: 21.9 µM
  IC90: > 100 µM
  CC50: > 40 µM

## CSc1ccc(C(=O)C2CCCN(Cc3cc4ccccc4[nH]3)C2)cc1 (stereo not drawn)
  IC50: 2.43 µM
  IC90: 2.98 µM
  CC50: > 40 µM

## Nc1ccc(OCc2ccco2)cc1
  IC50: 5.19 µM
  IC90: > 100 µM

## COc1ccc(NC(=O)c2nc[nH]c2C(=O)N[C@@H](C)c2ccccc2)cc1
  IC50: 5.7 µM
  IC90: 22.4 µM
  CC50: > 40 µM

## COc1ccc(-c2csc(NC(C)c3nc4cc(Cl)c(N5CCCCC5)cc4n3CCOCCO)n2)cc1 (stereo not drawn)
  IC50: 7.74 µM
  IC90: > 100 µM
  CC50: > 40 µM

## CCCCCc1cc(=O)oc2c(C(CCN3CCCC3)c3ccc(N(C)C)cc3)c(OC)cc(OC)c12 (stereo not drawn)
  IC50: 4.38 µM
  IC90: 6.04 µM
  CC50: 14 µM

## CCCCc1c(C)c(C#N)c2[nH]c3ccccc3n2c1=O
  IC50: 23.2 µM
  IC90: > 100 µM
  CC50: 22.9 µM

## O=C(Nc1cc(C(F)(F)F)cc(C(F)(F)F)c1)Nc1cnn(-c2ccc([N+](=O)[O-])cc2)c1C(F)(F)F
  IC50: 0.676 µM
  IC90: 0.938 µM
  CC50: 2.76 µM

## COc1cnc(-c2ccccn2)nc1Sc1ccccc1Cl
  IC50: 1.94 µM
  IC90: 6.23 µM
  CC50: 7.16 µM

## Cc1cc2ccccc2n1CCNC(=O)COc1ccc2ccccc2c1
  IC50: 52.5 µM
  IC90: > 100 µM

## Cc1nn(-c2ccccc2)c2c1C(c1ccc(O)c(O)c1)N1C(=N2)C(Nc2ccccc2)=Nc2ccccc21 (stereo not drawn)
  IC50: 1.5 µM
  IC90: 2.11 µM
  CC50: 8.02 µM

## COC(=O)COc1cccc(NC(=O)COc2ccccc2)c1
  IC50: 2.72 µM
  IC90: 4 µM

## CCc1ccc(C(=O)CSC2=C(C#N)C(c3ccco3)C(C(C)=O)=C(C)N2)cc1 (stereo not drawn)
  IC50: 7.81 µM
  IC90: 23.3 µM
  CC50: > 40 µM

## COc1ccc(NCc2ccc([N+](=O)[O-])s2)cc1
  IC50: 59.4 µM
  IC90: > 100 µM

## CCOc1ccc(NC(=O)CSc2ccccc2N)cc1
  IC90: > 100 µM

## c1ccc(-c2cc(-c3ccncc3)nc3ccc4ccccc4c23)cc1
  CC50: > 40 µM

## O=C(OCC#CCSc1nc2ccccc2o1)c1ccco1
  IC50: 4.27 µM
  IC90: 12.4 µM

## CCOC(=O)Cn1c2c(c(-c3ccccc3OC)cc1=O)CCCC2
  IC50: 21.1 µM
  IC90: > 100 µM

## CNc1nc(SC)nc2ccsc12
  IC50: 5.66 µM
  IC90: 15.2 µM

## COc1ccc(C2(CNC(=O)c3cc([N+](=O)[O-])cc([N+](=O)[O-])c3)CCCC2)cc1OC
  IC50: < 0.195 µM
  IC90: 0.686 µM

## Clc1ccc(-c2nnc3sc(Cc4cccs4)nn23)cc1
  IC50: 19.6 µM
  IC90: > 100 µM

## CN1CCN(c2ccc(C(=O)c3cn(-c4ccc(F)c(Cl)c4)nn3)cc2)CC1
  IC50: 3.43 µM
  IC90: > 100 µM
  CC50: 9.78 µM

## CCCNC(=O)c1nnsc1S(=O)(=O)c1ccc(Cl)cc1
  IC50: 25.2 µM
  IC90: 28 µM
  CC50: 16.2 µM

## COc1ccc(N2Cc3ccccc3C2)cc1Cl
  IC90: > 100 µM

## Cc1ccccc1C(=O)Nc1nnc(-c2ccc(F)cc2)o1
  IC50: 1.11 µM
  IC90: 3.78 µM
  CC50: 39.1 µM

## CCCCCOc1ccc(Br)cc1CSC(=N)N
  IC50: 9.43 µM
  IC90: 12 µM
  CC50: 14.8 µM

## O=C(Nc1ccccc1Cl)Oc1ccc2ccccc2c1
  IC90: > 100 µM

## N#Cc1cnc2c(-c3ccccc3)c(-c3ccccc3)nn2c1N
  IC50: 28.1 µM
  IC90: > 100 µM
  CC50: > 40 µM

## CCn1ccnc1CN1CCCC(C(=O)c2ccc3cc(OC)ccc3c2)C1 (stereo not drawn)
  IC50: 10.9 µM
  IC90: 25.5 µM
  CC50: > 40 µM

## CNC(=O)C(=O)Nc1nc(C23CC4CC(CC(C4)C2)C3)cs1
  IC50: 62.7 µM
  IC90: > 100 µM

## Cc1c2c(nc3ccccc13)CCC(C)C2 (stereo not drawn)
  IC50: 16.6 µM
  IC90: 40.6 µM

## O=C(NCCc1ccc(Cl)cc1)c1ccc(CNc2c(N3CCOCC3)c(=O)c2=O)cc1
  IC50: 2.85 µM
  IC90: 3.19 µM

## O=c1oc2ccc(Br)cc2cc1-c1nc2ccccc2o1
  IC50: 2 µM
  IC90: 3.83 µM

## CCOC(=O)Cn1nnc(-c2ccc(OCC(C)C)cc2)n1
  IC50: 16.6 µM
  IC90: > 100 µM

## O=C(OCc1nc2ccccc2s1)c1ccco1
  IC50: 32.7 µM
  IC90: > 100 µM

## Nc1nc2ccccc2n1C(=O)c1ccc(F)cc1
  IC50: 1.93 µM
  IC90: 4.15 µM
  CC50: > 40 µM

## O=C(/C=C/c1ccc([N+](=O)[O-])s1)N1CCCCC1
  IC50: 6.4 µM
  IC90: 10.6 µM
  CC50: > 40 µM

## O=[N+]([O-])c1cccn2cc(-c3ccc(Br)cc3)nc12
  IC50: 18.8 µM
  IC90: > 100 µM
  CC50: 27.1 µM

## COc1ccc(C2CC(=O)N3C(=C2C#N)SCC3(O)c2ccccc2)cc1 (stereo not drawn)
  IC50: 7 µM
  IC90: 12 µM
  CC50: > 40 µM

## COc1ccc2c(c1)sc(=N)n2C
  IC50: 8.91 µM
  IC90: 11.7 µM
  CC50: > 40 µM

## Nc1ccc(C(=O)O)c(O)c1
  IC50: < 0.195 µM
  IC90: > 100 µM

## Cc1ccc2nc(/C(C#N)=C\c3ccc(OC(=O)c4cccs4)cc3)[nH]c2c1
  IC50: 20.4 µM
  IC90: > 100 µM
  CC50: 22.9 µM

## COc1ccc(N=C/C=C2/C=C(c3ccccc3)OC(C)(C)O2)cc1
  IC50: 63.4 µM
  IC90: > 100 µM

## COc1ccc(OC(=O)CCc2c[nH]c3ccccc23)cc1
  IC50: 18.2 µM
  IC90: > 100 µM

## C/C=C/C(=O)OCC(=O)Nc1ccc(OC)c(Cl)c1
  IC50: 20 µM
  IC90: > 100 µM

## Cc1cc(NC(=O)c2sccc2C)n(-c2nc3ccccc3[nH]2)n1
  IC50: < 0.391 µM
  IC90: 18.1 µM
  CC50: 31.2 µM

## CCCCCc1cc(=O)oc2c(C(CCN3CCCCC3)c3cc(OC)c(OC)c(OC)c3)c(OC)cc(OC)c12 (stereo not drawn)
  IC50: 4.18 µM
  IC90: 5.62 µM
  CC50: 13.7 µM

## CCn1c(NC(=O)c2nn(C)cc2Br)nc2ccccc21
  IC50: 6.62 µM
  IC90: 13.2 µM
  CC50: > 40 µM

## COc1ccc(-c2ccc([C@H]3[C@@H]4C=CCC[C@@]4(C)C(=O)N3Cc3ccccc3)c(F)c2)cc1OC
  IC50: 13 µM
  IC90: > 100 µM
  CC50: 39.2 µM

## O=c1cc(-c2ccccc2)nc(N2CCN(Cc3ccc4c(c3)OCO4)CC2)[nH]1
  IC50: 89 µM
  IC90: > 100 µM

## Cc1nc([N+](=O)[O-])c(Br)n1Cc1ccc(Cl)c(Cl)c1
  IC50: 4.08 µM
  IC90: 7.03 µM
  CC50: 12.5 µM

## CCc1c(C#N)c(N)nc(SCC(=O)OCc2ccccc2)c1C#N
  IC90: > 100 µM

## O=C1C=C(Nc2ccccc2)C(=O)c2ccccc21
  IC50: 11.7 µM
  IC90: 13.4 µM
  CC50: > 40 µM

## CCCCOC(=O)c1ccc(NC(=O)C2CCCO2)cc1 (stereo not drawn)
  IC50: 14.2 µM
  IC90: > 100 µM

## CCN(CC)CCn1c(NC(=O)c2ccc(C(F)(F)F)cc2)nc2ccccc21
  CC50: > 40 µM

## O=C(Oc1ccc(Cl)cc1)c1ccc(COC(=O)c2cnccn2)cc1
  IC50: 6.54 µM
  IC90: 9.41 µM
  CC50: > 40 µM

## O=C(Nc1ccn(Cc2ccccc2F)n1)c1ccc(COc2ccc(Cl)cc2Cl)o1
  IC50: 33.9 µM
  IC90: > 100 µM
  CC50: > 40 µM

## CCOC(=O)c1ccc(N/C=C2\CCCCC2=O)cc1
  IC90: > 100 µM

## COc1cccc(CNc2cnc3ccccc3c2)c1O
  IC50: 28.6 µM
  IC90: > 100 µM

## Cc1ccc(-c2nn(-c3ccccc3)cc2C=O)o1
  CC50: > 40 µM

## CC(C)(C)c1ccc(C(=O)NCCCN2CCN(CCCNC(=O)c3ccc(C(C)(C)C)cc3)CC2)cc1
  IC50: 5.43 µM
  IC90: 7.12 µM
  CC50: 27.4 µM

## CN(C)CCCn1c(=O)n(CCc2ccccc2)c(=O)c2c3c(sc21)CCCCC3
  IC50: 11.6 µM
  IC90: 12.9 µM
  CC50: 18.1 µM

## O=S1(=O)CCC(N=Cc2ccc(-c3ccc(Cl)cc3)o2)C1 (stereo not drawn)
  IC50: 6.54 µM
  IC90: > 100 µM

## Cn1cc(C(=O)CCl)c2ccccc21
  IC50: 1.6 µM
  IC90: 4.01 µM
  CC50: 10.9 µM

## CCOC(=O)CSc1nc(N)c(C#N)c(CC(C)C)c1C#N
  IC50: 1.44 µM
  IC90: 8.77 µM
